≈ marks a conversion by molar mass, not a printed value.
Columns and labels:
Nakaseomyces glabratus = experiment: Antifungal activity against Candida glabrata after 24 hrs by broth microdilution method; assay type: functional
Candida albicans = experiment: Antifungal activity against Candida albicans after 24 hrs by broth microdilution method; assay type: functional
[Candida] sake = Antifungal activity against Candida sake after 24 hrs by broth microdilution method; assay type: functional; details: Fermentozyma sake
Pichia kudriavzevii = experiment: Antifungal activity against Candida krusei after 24 hrs by broth microdilution method; assay type: functional
Candida tropicalis = experiment: Antifungal activity against Candida tropicalis after 24 hrs by broth microdilution method; assay type: functional
Candida parapsilosis = experiment: Antifungal activity against Candida parapsilosis after 24 hrs by broth microdilution method; assay type: functional; details: Lodderomyces parapsilosis
[1] = Cytotoxicity against human EAhy926 cells assessed as cell survival fraction at 5 ug/ml after 24 hrs by trypan blue exclusion test; details: ea.hy 926, at 5 µg/mL
[2] = Cytotoxicity against human EAhy926 cells assessed as cell survival fraction at 0.05 ug/ml after 24 hrs by trypan blue exclusion test; details: ea.hy 926, at 0.05 µg/mL
[3] = Cytotoxicity against human EAhy926 cells assessed as cell survival fraction at 50 ug/ml after 24 hrs by trypan blue exclusion test; details: ea.hy 926, at 50 µg/mL
[4] = Cytotoxicity against human EAhy926 cells assessed as cell survival fraction at 0.5 ug/ml after 24 hrs by trypan blue exclusion test; details: ea.hy 926, at 0.5 µg/mL

Compound	MIC (Nakaseomyces glabratus)	MIC (Candida albicans)	MIC ([Candida] sake)	MIC (Pichia kudriavzevii)	MIC (Candida tropicalis)	MIC (Candida parapsilosis)	viability at 24 h, 5 ug/ml [1]	viability at 24 h, 0.05 ug/ml [2]	viability at 24 h, 50 ug/ml [3]	viability at 24 h, 0.5 ug/ml [4]
O=[N+]([O-])c1cccc(-c2csc(NN=C3CCCC3)n2)c1	0.5 µg/mL (≈ 1.65 µM)	1 µg/mL (≈ 3.31 µM)	16 µg/mL (≈ 52.9 µM)	> 128 µg/mL	64 µg/mL (≈ 212 µM)	> 128 µg/mL				
CC1CCC/C(=N\Nc2nc(-c3ccc(C#N)cc3)cs2)C1 (stereo unspecified)	> 128 µg/mL	0.5 µg/mL (≈ 1.61 µM)	4 µg/mL (≈ 12.9 µM)	4 µg/mL (≈ 12.9 µM)	2 µg/mL (≈ 6.44 µM)	0.5 µg/mL (≈ 1.61 µM)	50%	68.8%	25%	68.7%
Cc1ccc(-c2csc(N/N=C3\CCCC(C)C3)n2)cc1 (stereo unspecified)	32 µg/mL (≈ 107 µM)	0.5 µg/mL (≈ 1.67 µM)	2 µg/mL (≈ 6.68 µM)	0.5 µg/mL (≈ 1.67 µM)	0.5 µg/mL (≈ 1.67 µM)	0.5 µg/mL (≈ 1.67 µM)	72.7%	84%	38.5%	83.3%
c1ccc(-c2ccc(-c3csc(NN=C4CCCC4)n3)cc2)cc1	> 128 µg/mL	16 µg/mL (≈ 48 µM)	32 µg/mL (≈ 96 µM)	> 128 µg/mL	64 µg/mL (≈ 192 µM)	> 128 µg/mL				
CC1CCCC/C1=N\Nc1nc(-c2ccc(-c3ccccc3)cc2)cs1 (stereo unspecified)	64 µg/mL (≈ 177 µM)	32 µg/mL (≈ 88.5 µM)	16 µg/mL (≈ 44.3 µM)	16 µg/mL (≈ 44.3 µM)	64 µg/mL (≈ 177 µM)	16 µg/mL (≈ 44.3 µM)				
c1ccc(-c2csc(NN=C3CCCCCC3)n2)cc1	> 128 µg/mL	0.5 µg/mL (≈ 1.75 µM)	16 µg/mL (≈ 56.1 µM)	8 µg/mL (≈ 28 µM)	8 µg/mL (≈ 28 µM)	8 µg/mL (≈ 28 µM)	80%	94.7%	54.5%	87.5%
COc1ccc(-c2csc(NN=C3CCCC3)n2)cc1	2 µg/mL (≈ 6.96 µM)	0.5 µg/mL (≈ 1.74 µM)	32 µg/mL (≈ 111 µM)	32 µg/mL (≈ 111 µM)	64 µg/mL (≈ 223 µM)	8 µg/mL (≈ 27.8 µM)	76.6%	85%	66%	82.4%
Cc1ccc(-c2csc(NN=C3CCCC3)n2)cc1	0.5 µg/mL (≈ 1.84 µM)	0.25 µg/mL (≈ 0.921 µM)	16 µg/mL (≈ 59 µM)	64 µg/mL (≈ 236 µM)	4 µg/mL (≈ 14.7 µM)	128 µg/mL (≈ 472 µM)	80%	85.4%	75%	82%
CC1CCCC/C1=N\Nc1nc(-c2ccc(Br)cc2)cs1 (stereo unspecified)	2 µg/mL (≈ 5.49 µM)	4 µg/mL (≈ 11 µM)	16 µg/mL (≈ 43.9 µM)	64 µg/mL (≈ 176 µM)	32 µg/mL (≈ 87.8 µM)	8 µg/mL (≈ 22 µM)				
CC1CCC/C(=N\Nc2nc(-c3ccc(Cl)cc3)cs2)C1 (stereo unspecified)	> 128 µg/mL	0.5 µg/mL (≈ 1.56 µM)	2 µg/mL (≈ 6.25 µM)	4 µg/mL (≈ 12.5 µM)	2 µg/mL (≈ 6.25 µM)	1 µg/mL (≈ 3.13 µM)	50%	73%	28.6%	70%
CC1CCC/C(=N\Nc2nc(-c3ccc(F)cc3)cs2)C1 (stereo unspecified)	> 128 µg/mL	0.5 µg/mL (≈ 1.65 µM)	8 µg/mL (≈ 26.4 µM)	4 µg/mL (≈ 13.2 µM)	4 µg/mL (≈ 13.2 µM)	1 µg/mL (≈ 3.3 µM)	60%	80%	52.9%	76.9%
Brc1ccc(-c2csc(NN=C3CCCC3)n2)cc1	2 µg/mL (≈ 5.95 µM)	2 µg/mL (≈ 5.95 µM)	32 µg/mL (≈ 95.2 µM)	> 128 µg/mL	≥ 128 µg/mL	128 µg/mL (≈ 381 µM)				
Clc1ccc(-c2csc(NN=C3CCCC3)n2)cc1	0.5 µg/mL (≈ 1.71 µM)	0.25 µg/mL (≈ 0.857 µM)	16 µg/mL (≈ 54.8 µM)	64 µg/mL (≈ 219 µM)	32 µg/mL (≈ 110 µM)	8 µg/mL (≈ 27.4 µM)	81%	86%	64.9%	89.2%
O=[N+]([O-])c1ccc(-c2csc(NN=C3CCCC3)n2)cc1	0.5 µg/mL (≈ 1.65 µM)	8 µg/mL (≈ 26.5 µM)	16 µg/mL (≈ 52.9 µM)	32 µg/mL (≈ 106 µM)	64 µg/mL (≈ 212 µM)	> 128 µg/mL				
CC1CCCC/C1=N\Nc1nc(-c2cccc([N+](=O)[O-])c2)cs1 (stereo unspecified)	16 µg/mL (≈ 48.4 µM)	0.5 µg/mL (≈ 1.51 µM)	16 µg/mL (≈ 48.4 µM)	> 128 µg/mL	64 µg/mL (≈ 194 µM)	8 µg/mL (≈ 24.2 µM)	85.7%	88.8%	83.3%	86%
COc1ccc(-c2csc(N/N=C3\CCCC(C)C3)n2)cc1 (stereo unspecified)	> 128 µg/mL	0.5 µg/mL (≈ 1.59 µM)	8 µg/mL (≈ 25.4 µM)	2 µg/mL (≈ 6.34 µM)	2 µg/mL (≈ 6.34 µM)	1 µg/mL (≈ 3.17 µM)	72.7%	83.3%	54.5%	80%
N#Cc1ccc(-c2csc(NN=C3CCCC3)n2)cc1	0.5 µg/mL (≈ 1.77 µM)	2 µg/mL (≈ 7.08 µM)	32 µg/mL (≈ 113 µM)	32 µg/mL (≈ 113 µM)	32 µg/mL (≈ 113 µM)	128 µg/mL (≈ 453 µM)	81%	88.9%	76%	84.7%

Reference: ChEMBL document CHEMBL1140645, “Synthesis and in vitro activity of 2-thiazolylhydrazone derivatives compared with the activity of clotrimazole against clinical isolates of Candida spp” (Bioorg Med Chem Lett, 2007)
